Values of other authors, collected in patent publication US20240173413A1, “Ultrasound Responsive Nanobubble Compositions and Methods of Production and Use Thereof” (University of Central Florida Research Foundation, lnc., priority 2021, published 2024).
Where two headings read alike, the source gives them in different places.

Tested on: patients with postmenopausal osteoporosis
Settings: Phase III, development terminated

In the case of `CC(C)(F)C[C@H](N[C@@H](c1ccc(-c2ccc(S(C)(=O)=O)cc2)cc1)C(F)(F)F)C(=O)NC1(C#N)CC1` [Odanacatib], the adverse effects is listed as “increased risk of stroke” and the adverse effects (listed as ODN) is listed as “cardio-cerebrovascular adverse effects”.
